According to ChEMBL document CHEMBL6115002, “Discovery of novel sitolactone derivative leading to PANoptosis and differentiation of acute myeloid leukemia cells” (Eur J Med Chem, 2025):
The source made the active and inactive calls. The calls are words filed in the database; no cut-off is given here.

What was measured:
Kasumi 1 [1] = experiment: Upregulation of SMARCB1 protein level in human Kasumi 1 cells by pull down based Western blotting analysis; type: functional, cell-based
Kasumi 1 [2] = experiment: Upregulation of SMARCA4 protein level in human Kasumi 1 cells by pull down based Western blotting analysis; type: functional, cell-based
Kasumi 1 [3] = experiment: Upregulation of SMARCA2 protein level in human Kasumi 1 cells by pull down based Western blotting analysis; type: functional, cell-based
Kasumi 1 [4] = experiment: Induction of apoptosis in human Kasumi 1 cells assessed as increase in caspase-3 level incubated for 24 hrs by Western blotting analysis; type: functional, cell-based; details: dose 25-50 µM
WEHI-3 [5] = experiment: Induction of apoptosis in mouse WEHI-3 cells assessed as increase in cleaved PARP-1 level incubated for 24 hrs by Western blotting analysis; type: functional, cell-based; details: dose 25-50 µM
Kasumi 1 [6] = experiment: Induction of apoptosis in human Kasumi 1 cells assessed as increase in cleaved PARP-1 level incubated for 24 hrs by Western blotting analysis; type: functional, cell-based; details: dose 25-50 µM
WEHI-3 [7] = experiment: Induction of apoptosis in mouse WEHI-3 cells assessed as increase in caspase-3 level incubated for 24 hrs by Western blotting analysis; type: functional, cell-based; details: dose 25-50 µM
WEHI-3 [8] = experiment: Induction of […] in mouse WEHI-3 cells assessed as activation of p-MLKL level at 25 to 50 uM incubated for 24 hrs by Western blotting analysis; type: functional, cell-based; details: dose 25-50 µM
Kasumi 1 [9] = experiment: Induction of […] in human Kasumi 1 cells assessed as activation of p-MLKL level at 25 to 50 uM incubated for 24 hrs by Western blotting analysis; type: functional, cell-based; details: dose 25-50 µM
WEHI-3 [10] = experiment: Induction of […] in mouse WEHI-3 cells assessed as activation of p-RIPK3 level at 25 to 50 uM incubated for 24 hrs by Western blotting analysis; type: functional, cell-based; details: dose 25-50 µM
Kasumi 1 [11] = experiment: Induction of […] in human Kasumi 1 cells assessed as activation of p-RIPK3 level at 25 to 50 uM incubated for 24 hrs by Western blotting analysis; type: functional, cell-based; details: dose 25-50 µM
Mus musculus [12] = experiment: Antitumor activity against Balb/c mouse implanted with mouse WEHI-3 cells assessed as reduction in hepatomegaly at 1 mg/kg, po administered once daily for 15 days; type: functional, organism-based; details: time 15.0 day
WEHI-3 [13] = experiment: Antitumor activity against mouse WEHI-3 cells implanted in Balb/c mouse assessed as reduction in liver metastasis at 100 to 200 mg/kg, po administered daily for 15 days by H and E staining based analysis; type: functional, organism-based; details: dose 100-200 mg/kg, time 15.0 day
[14] = Half life in male Sprague-Dawley rat at 50 mg/kg, iv measured after 18 hrs LC/MS-MS analysis; type: ADME, organism-based; details: in vivo
Mus musculus [15] = experiment: Antitumor activity against Balb/c mouse implanted with mouse WEHI-3 cells assessed as reduction in hepatomegaly at 100 to 200 mg/kg, po administered once daily for 15 days; type: functional, organism-based; details: dose 100-200 mg/kg, time 15.0 day
[16] = AUC (0 to t) in male Sprague-Dawley rat at 50 mg/kg, iv measured after 18 hrs LC/MS-MS analysis; type: ADME, organism-based; details: in vivo
[17] = AUC(0 to t) in male Sprague-Dawley rat at 200 mg/kg, po measured after 18 hrs LC/MS-MS analysis; type: ADME, organism-based; details: in vivo
[18] = Cmax in male Sprague-Dawley rat at 50 mg/kg, iv measured after 18 hrs LC/MS-MS analysis; type: ADME, organism-based; details: in vivo
[19] = Cmax in male Sprague-Dawley rat at 200 mg/kg, po measured after 18 hrs LC/MS-MS analysis; type: ADME, organism-based; details: in vivo
Mus musculus [20] = experiment: Antitumor activity against Balb/c mouse implanted with mouse WEHI-3 cells assessed as reduction in splenomegaly at 1 mg/kg, po administered once daily for 15 days; type: functional, organism-based; details: time 15.0 day
[21] = Oral bioavailability in male Sprague-Dawley rat at 200 mg/kg measured after 18 hrs LC/MS-MS analysis; type: ADME, organism-based; details: in vivo
Mus musculus [22] = experiment: Antitumor activity against Balb/c mouse implanted with mouse WEHI-3 cells assessed as reduction in splenomegaly at 100 to 200 mg/kg, po administered once daily for 15 days; type: functional, organism-based; details: dose 100-200 mg/kg, time 15.0 day
[23] = Half life in male Sprague-Dawley rat at 200 mg/kg, po measured after 18 hrs LC/MS-MS analysis; type: ADME, organism-based; details: in vivo

## CC(C)[Si](O[C@H]1CC[C@H]2[C@@H]3CC(CCCc4cn(CCOCCOCCOCCNC(=O)CCCC[C@@H]5SC[C@@H]6NC(=O)N[C@@H]65)nn4)C(=O)O[C@@H]3CC[C@]12C)(C(C)C)C(C)C (stereo partly drawn)
Kasumi 1 [1]
  Activity: Active
Kasumi 1 [2]
  Activity: Active
Kasumi 1 [3]
  Activity: Active

## COC(=O)C[C@](O)(CCCC(C)(C)O)C(=O)O[C@@H]1C(OC)=C[C@]23CCCN2CCc2cc4c(cc2[C@H]13)OCO4
Kasumi 1 [4]
  Activity: Dose-dependent-effect
WEHI-3 [5]
  Activity: Dose-dependent-effect
Kasumi 1 [6]
  Activity: Dose-dependent-effect
WEHI-3 [7]
  Activity: Dose-dependent-effect
WEHI-3 [8]
  Activity: inactive
Kasumi 1 [9]
  Activity: inactive
WEHI-3 [10]
  Activity: inactive
Kasumi 1 [11]
  Activity: inactive
Mus musculus [12]
  Activity: Active

## CC(C)[Si](O[C@H]1CC[C@H]2[C@@H]3CC(CN4CCC[C@H]4CO)C(=O)O[C@@H]3CC[C@]12C)(C(C)C)C(C)C (stereo partly drawn)
WEHI-3 [13]
  Activity: Active
[14]
  half-life: 16.3 min
Mus musculus [15]
  Activity: Active
[16]
  AUC(0-t) at 18 h: 7150 ng·h/mL
[17]
  AUC(0-t) at 18 h: 19600 ng·h/mL
[18]
  Cmax: 12100 ng/mL
[19]
  Cmax: 17700 ng/mL
Mus musculus [20]
  Activity: Active
[21]
  bioavailability: 68.6%
Mus musculus [22]
  Activity: Active
[23]
  half-life: 59.8 min
